The subject of assay [1] is NRK (normal rat kidney) cells. The assay is described as follows: tritium labeled thymidine incorporation of low and high passage NRK cells, with and without EGF. It counts as cell-based. The following applies: low passage NRK cells, serum free medium. The text has this:
(§1) Further exploration of this point was done with the cell line designated NRK (normal rat kidney). When used at a low passage number these cells behave as a normal, non-tumorigenic line, as evidenced by their low rates of colony formation in soft agar. This growth pattern facilitated wide spread use of the NRK cells as bioassay targets for alpha- and beta-transforming growth factors. The bioassay of transforming growth factors by soft agar colony formation was shown by others to require the additon of epidermal growth factor (EGF). At higher passage numbers, these cells progressively increase their capacity to form colonies in soft agar without requiring the presence of growth factor supplements to the usual serum containing medium. Using these properties, we have asked whether low and high passage NRK cells responded to KDGF both with and without added EGF. These experiments were conducted in serum free medium, since the presence of even low concentrations (i.e. 1%, vol/vol) of serum inhibited KDGF action. […] Thus with the relatively non-tumorigenic pheno-type NRK cells, KDGF and EGF were synergistic when cells were in sparse culture. […] In a final experiment, the growth promoting effects of EGF and/or KDGF were compared on LLCK-PK1 pig kidney cells. […] EGF alone was mitogenic for LLCK-PK1 cells, whereas KDGF was not. […]
A general note: Dividing cells build labelled thymidine or BrdU into new DNA.

In assay [2] the test system is LLCK-PK1 pig kidney cells. The assay is described as follows: growth promoting effects of EGF and/or KDGF on LLCK-PK1 cells. It counts as cell-based.
Excerpt: as §1

Assay [3] has as its system MDCK kidney cell line. The assay is described as follows: growth response of MDCK cells. It counts as cell-based, dog.

The values below come from patent publication US4670539A, “Peptide growth factors derived from estrogen responsive kidney tissue” (Board of Regents, The University of Texas, priority 1984, dated 1987).

As for epidermal growth factor [EGF], the “growth (tritium labeled thymidine incorporation), factor alone” value in assay [1] (confluent cultures) was “Neither KDGF alone nor EGF alone promoted growth”. Besides, the “mitogenic response, factor alone” value in assay [1] (non-confluent cultures) is “limited mitogenic responses”. The “mitogenic activity, factor alone” value in assay [2] is recorded as “mitogenic”. Further, the growth response result in assay [3] is on record as “responded”.
